According to patent publication US20110262359A1, “COMPOSITIONS COMPRISING ENZYME-CLEAVABLE PRODRUGS OF ACTIVE AGENTS AND INHIBITORS THEREOF” (priority 2010, published 2011):
Like-named read-outs stand apart in the source and are kept apart here.

Assays:
[1] = Oral administration of Compound KC-2 and trypsin inhibitor Compound 109 to rats; format: in vivo; conditions: rat PO; KC-2 6 mg/kg with Compound 109 30 mg/kg
[2] = Oral administration of Compound KC-2 co-dosed with increasing Compound 109 to rats; format: in vivo; conditions: rat PO; KC-2 50 mg/kg with Compound 109 10 to 40 mg/kg
[3] = Oral administration of Compound PC-5 co-dosed with trypsin inhibitor Compound 109 to rats; format: in vivo; conditions: rat PO; PC-5 6 mg/kg with Compound 109 0.1 to 10 mg/kg
[4] = Oral administration of Compound KC-3 and trypsin inhibitor Compound 109 to rats; format: in vivo; conditions: rat PO; KC-3 50 mg/kg with Compound 109 10 to 40 mg/kg
[5] = Oral administration of Compound PC-6 co-dosed with trypsin inhibitor Compound 109 to rats; format: in vivo; conditions: rat PO; PC-6 6 mg/kg with Compound 109 0.01 to 30 mg/kg
[6] = Oral administration of Compound KC-4 and trypsin inhibitor Compound 109 to rats; format: in vivo; conditions: rat PO; KC-4 6 mg/kg with Compound 109 30 mg/kg
[7] = target: T1, trypsin from bovine pancreas (Bos taurus, UniProt P00760); assay: Effect of trypsin inhibition on in vitro trypsin-mediated release of oxycodone from Compound KC-2; format: biochemical; design: trypsin from bovine pancreas; purchased Sigma-Aldrich T8003; host or cells: bovine pancreas (tissue-derived); conditions: no trypsin inhibitor; 0.761 mM Compound KC-2, 0.0228 mg/mL trypsin, 37° C.
T1 sequence (P00760 24-246): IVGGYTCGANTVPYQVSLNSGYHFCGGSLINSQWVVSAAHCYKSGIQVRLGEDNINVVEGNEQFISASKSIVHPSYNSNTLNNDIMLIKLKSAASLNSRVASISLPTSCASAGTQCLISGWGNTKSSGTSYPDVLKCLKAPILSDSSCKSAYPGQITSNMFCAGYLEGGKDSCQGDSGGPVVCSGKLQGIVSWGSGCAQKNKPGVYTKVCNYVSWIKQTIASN

[8] = In vitro stability of Compound KC-2 to household chemicals and enzyme preparations; format: physicochemical; conditions: vodka, baking soda, WINDEX, vinegar at RT or 80° C.; GNC Super Digestive, tenderizer, subtilisn at RT; 1 or 24 hr
Method: Samples were incubated as described and aliquots removed at 1 hr and 24 hr and stabilized by adding each to a solution of 50% or 100% of 85% phosphoric acid solution to achieve a final pH of less than or equal to pH 4. The stabilized aliquots were then diluted 4- to 6-fold with water, vortex-mixed and applied to HPLC.

[9] = male, Sprague Dawley, rat, in vivo
[10] = Pharmacokinetics of oxycodone prodrug Compound KC-2 or oxycodone following PO administration to rats; format: in vivo; conditions: rat PO; Compound KC-2 20 mg/kg vs oxycodone 10 mg/kg
[11] = Pharmacokinetics of Compound KC-4 following IV administration to rats; format: in vivo; conditions: KC-4 2 mg/kg ([…])
[12] = target: T1, trypsin from bovine pancreas; assay: In vitro trypsin conversion of ketone-modified opioid prodrugs to oxycodone or hydrocodone and inhibition by Compound 109; format: biochemical; design: trypsin from bovine pancreas; purchased Sigma-Aldrich T8003; host or cells: bovine pancreas (tissue-derived); conditions: 0.761 mM prodrug, no inhibitor, 37° C.
human μ-opioid receptor = target: T2, human μ-opioid receptor (Homo sapiens, UniProt P35372); format: cell-based; conditions: EC50 at the human μ-opioid receptor, oxycodone or hydrocodone to the prodrug of that drug, same experiment
T2 construct: expressed in transfected cells; host or cells: CHO
T2 sequence (P35372 whole entry): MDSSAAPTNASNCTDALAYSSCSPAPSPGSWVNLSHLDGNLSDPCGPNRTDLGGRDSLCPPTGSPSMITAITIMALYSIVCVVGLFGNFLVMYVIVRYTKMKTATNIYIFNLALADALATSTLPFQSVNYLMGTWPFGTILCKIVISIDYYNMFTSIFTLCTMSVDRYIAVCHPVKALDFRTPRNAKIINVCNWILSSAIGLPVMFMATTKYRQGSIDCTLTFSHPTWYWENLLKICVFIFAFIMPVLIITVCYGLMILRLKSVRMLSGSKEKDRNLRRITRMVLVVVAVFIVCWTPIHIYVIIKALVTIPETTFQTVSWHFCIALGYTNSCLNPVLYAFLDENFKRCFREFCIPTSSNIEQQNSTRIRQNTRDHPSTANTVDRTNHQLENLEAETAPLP

[13] = Pharmacokinetics of Compound KC-4 following PO administration to rats; format: in vivo; conditions: rat PO; KC-4 6 mg/kg
[14] = Pharmacokinetics of Compound KC-5 following PO administration to rats; format: in vivo; conditions: rat PO
[15] = Pharmacokinetics of Compound KC-6 following PO administration to rats; format: in vivo; conditions: rat PO
[16] = male, Sprague Dawley, rat, in vivo; remark: listed apart in the source
[17] = male, Sprague Dawley, rat, in vivo

## N=C(N)c1ccc2cc(OC(=O)c3ccc(N=C(N)N)cc3)ccc2c1 [Compound 109, 6-carbamimidoylnaphthalen-2-yl 4-(diaminomethyleneamino)benzoate]
[1]
  effect of Compound 109 on release of oxycodone from Compound KC-2: attenuates Compound KC-2's ability to release oxycodone, both by suppressing Cmax and by delaying Tmax
[2]
  effect of Compound 109 on release of oxycodone from Compound KC-2: ability to attenuate Compound KC-2's ability to release oxycodone in a dose dependent manner
[3]
  effect of Compound 109 on release of hydromorphone from Compound PC-5: ability to attenuate Compound PC-5's ability to release hydromorphone in a dose dependent manner
[4]
  effect of Compound 109 on release of oxycodone from Compound KC-3: attenuates Compound KC-3's ability to release oxycodone, both by suppressing Cmax and AUC and by delaying Tmax
[5]
  effect of Compound 109 on release of hydromorphone from Compound PC-6: ability to attenuate Compound PC-6's ability to release hydromorphone in a dose dependent manner
[6]
  effect of Compound 109 on release of hydrocodone from Compound KC-4: attenuates Compound KC-4's ability to release hydrocodone, both by suppressing Cmax and AUC and by delaying Tmax

## COc1ccc2c3c1O[C@H]1C(OC(=O)N(C)CCNC(=O)[C@H](CCCNC(=N)N)NC(C)=O)=CC[C@@]4(O)[C@@H](C2)N(C)CC[C@]314 [Compound KC-2, Oxycodone 6-(N-methyl-N-(2-N′-acetylarginylamino)) ethylcarbamate]
[7]
  Rate of oxycodone formation, umols/h/umol trypsin Average ± sd: 37.4 ± 0.9 umols/h/umol trypsin
[8]
  conversion of Compound KC-2 to oxycodone on exposure to household chemicals and enzyme preparations: less than 10%
[9]
  Plasma/CSF partitioning coefficient: 439
[10]
  oxycodone plasma profile compared to administration of oxycodone: yields oxycodone plasma concentrations that exhibit a suppressed Cmax and delayed Tmax compared to administration of oxycodone

## COc1ccc2c3c1OC1C(OC(=O)N(C)CCNC(=O)[C@H](CCCNC(=N)N)NC(=O)CC(=O)O)=CCC4[C@@H](C2)N(C)CC[C@]314 (stereo partly drawn) [Compound KC-4, N—((S)-1-{2-[(Dihydrocodein-6-enyloxycarbonyl)-methylamino]-ethylcarbamoyl-4-guanidino}-butyl)-malonamic acid]
[11]
  KC-4 Cmax (rat plasma): 3960 ± 570 ng/mL
[12]; 241 BAEE U trypsin/mL
  Rate of hydrocodone formation, umol/h/BAEE U Average ± sd: 0.0911 ± 0.015 umol/h/BAEE U
[12]; 4815 BAEE U trypsin/mL
  Rate of hydrocodone formation, umol/h/BAEE U Average ± sd: 0.0137 ± 0.0014 umol/h/BAEE U
Human μ-opioid receptor
  Drug/prodrug relative potency: 15
[13]
  release of hydrocodone after oral administration: leads to release of hydrocodone

## COc1ccc2c3c1O[C@H]1C(OC(=O)N(CCCCCC(=O)O)CCNC(=O)[C@H](CCCNC(=N)N)NC(C)=O)=CC[C@@]4(O)[C@@H](C2)N(C)CC[C@]314 [Compound KC-5, 6-{[2-(2-Acetylamino-5-guanidino-pentanoylamino)-ethyl]-[(5R, 9R,13S,14S)-4,5a-epoxy-6,7-didehydro-14-hydroxy-3-methoxy-17-methylmorphinan-6-oxy]-1-enyloxycarbonyl-amino}-hexanoic acid]
[12]; 241 BAEE U trypsin/mL
  Rate of oxycodone formation, umol/h/BAEE U Average ± sd: 0.135 ± 0.005 umol/h/BAEE U
[14]
  oxycodone plasma profile compared to administration of oxycodone: yields oxycodone plasma concentrations that exhibit a suppressed Cmax and AUC and delayed Tmax compared to administration of oxycodone
Administered intravenously in equimolar amounts, 316×50
  expected fold less effective at CNS mu-opioid receptors than oxycodone: about 15,800 fold
[17]
  Compound conc. in CSF: 36.4 ng/mL
  Compound conc. in Plasma: 54,900 ng/mL
  Plasma/CSF partitioning coefficient: 1,508
Rat IV, 1,508/4.8
  relative plasma/CSF partitioning coefficient of prodrug to oxycodone (fold less CSF penetrant than oxycodone): about 316 fold

## COc1ccc2c3c1O[C@H]1C(OC(=O)N(C)C[C@H](NC(=O)[C@H](CCCNC(=N)N)NC(C)=O)C(=O)N(C)CC(=O)O)=CC[C@@]4(O)[C@@H](C2)N(C)CC[C@]314 [Compound KC-6, ({(S)-2-((S)-2-Acetylamino-5-guanidino-pentanoylamino)-3-[(oxycodone-enyloxycarbonyl)-methyl-amino]-propionyl}-methyl-amino)-acetic acid]
[12]; 241 BAEE U trypsin/mL
  Rate of oxycodone formation, umol/h/BAEE U Average ± sd: 0.0118 ± 0.0042 umol/h/BAEE U
[12]; 4815 BAEE U trypsin/mL
  Rate of oxycodone formation, umol/h/BAEE U Average ± sd: 0.00571 ± 0.0002 umol/h/BAEE U
[15]
  oxycodone plasma profile compared to administration of oxycodone: yields oxycodone plasma concentrations that exhibit a suppressed Cmax and AUC and delayed Tmax compared to administration of oxycodone
[16]
  Plasma/CSF partitioning coefficient: 815
